Test results from patent US20140135310A1, “SULPHONAMIDE DERIVATIVES OF ALICYCLIC AMINES FOR THE TREATMENT OF CENTRAL NERVOUS SYSTEM DISEASES” (Adamed Sp. z o.o., priority 2011, published 2014).

Legend:
[1] = target: dopaminergic receptors D2 (Homo sapiens, UniProt P14416); experiment: Radioligand binding assay, dopaminergic D2 receptors; settings: binding assay, test compound 1×10^−6 M
From the text: (§1) The specific ligand binding to the receptors is defined as the difference between the total binding and the non-specific binding determined in the presence of the excess of unlabelled ligand.
(§2) The results are expressed as a percent of control specific binding ((measured specific binding/control specific binding)×100) and as a percent inhibition of control specific binding (100−((measured specific binding/control specific binding)×100)) obtained in the presence of the test compounds. The specific ligand binding to the receptors is defined as the difference between the total binding and the nonspecific binding determined in the presence of an excess of unlabelled ligand. Scintillation counting was the method of detection of ligand binding. The IC50 values (concentration causing a half-maximal inhibition of control specific binding) were determined by non-linear regression analysis of the competition curves generated with mean replicate values using Hill equation curve fitting (Y=D+[(A−D)/(1+(C/C50)nH)], where Y=specific binding, D=minimum specific binding, A=maximum specific binding, C=compound concentration, C50=IC50, and nH=slope factor). This analysis was performed using a software developed at Cerep (Hill software) and validated by comparison with data generated by the commercial software SigmaPlot® 4.0 for Windows® (© 1997 by SPSS Inc.). The inhibition constants (Ki) were calculated using the Cheng Prusoff equation (Ki=IC50/(1+(L/KD)), where L=concentration of radioligand in the assay, and KD=affinity of the radioligand for the receptor). A scatchard plot was used to determine the Kd.
(§3) Experimental conditions for tests are given in Table 1, the results of tests for representative compounds are given in Tables 2a and 2b (receptors D2 and D3) and in Table 3 (receptors D4).

[2] = target: dopaminergic receptors D3 (Homo sapiens, UniProt P35462); experiment: Radioligand binding assay, dopaminergic D3 receptors; settings: test compound 1×10^−6 M
From the text: as §1, §2, §3

[3] = target: T1, 5-HT1A receptor (rat hippocampus) (Rattus norvegicus, UniProt P19327); experiment: Radioligand binding assay, serotoninergic 5-HT1A receptors; settings: binding assay result in %, Table 5a;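 also: test compound at 1 µM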
T1 construct: hippocampus; from tissue; host or cells: rat hippocampus
T1 sequence (P19327 1-422): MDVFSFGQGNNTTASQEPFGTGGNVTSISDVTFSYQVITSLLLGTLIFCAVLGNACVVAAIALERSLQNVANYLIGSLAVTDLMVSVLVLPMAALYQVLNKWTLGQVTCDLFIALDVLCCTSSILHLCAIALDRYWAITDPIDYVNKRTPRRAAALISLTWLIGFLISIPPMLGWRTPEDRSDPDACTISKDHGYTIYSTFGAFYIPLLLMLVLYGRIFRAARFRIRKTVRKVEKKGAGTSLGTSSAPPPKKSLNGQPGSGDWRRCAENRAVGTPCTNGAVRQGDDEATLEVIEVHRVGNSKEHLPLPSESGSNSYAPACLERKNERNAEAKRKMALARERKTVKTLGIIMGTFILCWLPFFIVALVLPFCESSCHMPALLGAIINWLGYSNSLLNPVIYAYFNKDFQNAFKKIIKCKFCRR
From the text: as §1, §2
(§4) Experimental conditions for tests are given in Table 4, and results of tests for representative compounds of the invention are given in Table 5a and 5b (receptors 5-HT1A, 5-HT2A, 5-HT6 and 5-HT7) and in Table 6 (receptors 5-HT2C).

5-HT2A receptor = target: T2, 5-HT2A receptor (Homo sapiens, UniProt P28223); experiment: Radioligand binding assay, serotoninergic 5-HT2A receptors; settings: binding assay result in %, Table 5a
T2 construct: purchased PerkinElmer
From the text: as §1, §2
5-HT2A: Bryan L. Roth. Assay Protocol Book. University of North Carolina At Chapel Hill. National Institute of Mental Health. Psychoactive Drug Screening Program. Available on-line at 31 Aug. 2008: http://pdsp.med.unc.edu/UNC-CH%20Protocol%20Book.pdf

5-HT6 receptor = target: T3, 5-HT6 receptor (Homo sapiens, UniProt P50406); experiment: Radioligand binding assay, serotoninergic 5-HT6 receptors; settings: binding assay result in %, Table 5a;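 also: test compound at 1 µM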
T3 construct: purchased PerkinElmer
From the text: as §1, §2, §4
5-HT6: Bryan L. Roth. Assay Protocol Book. University of North Carolina At Chapel Hill. National Institute of Mental Health. Psychoactive Drug Screening Program. Available on-line at 31 Aug. 2008: http://pdsp.med.unc.edu/UNC-CH %20Protocol%20Book.pdf

5-HT7 receptor = target: T4, 5-HT7 receptor (Homo sapiens, UniProt P34969); experiment: Radioligand binding assay, serotoninergic 5-HT7 receptors; settings: binding assay result in %, Table 5a;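 also: test compound at 1 µM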
T4 construct: purchased PerkinElmer
From the text: as §1, §2, §4
5-HT7: Bryan L. Roth. Assay Protocol Book. University of North Carolina At Chapel Hill. National Institute of Mental Health. Psychoactive Drug Screening Program. Available on-line at 31 Aug. 2008: http://pdsp.med.unc.edu/UNC-CH %20Protocol%20Book.pdf

[4] = target: T5, serotonin transporter (SERT) (Homo sapiens, UniProt P31645); experiment: Radioligand binding assay, serotonin transporter (SERT); settings: binding assay, test compound 1×10^−6 M
T5 construct: expressed in transfected cells; host or cells: CHO cells
From the text: as §1, §2
Experimental conditions for tests are given in Table 12, and results of tests for representative compounds are given in Tables 13a and 13b.

T3 sequence (P50406 whole entry): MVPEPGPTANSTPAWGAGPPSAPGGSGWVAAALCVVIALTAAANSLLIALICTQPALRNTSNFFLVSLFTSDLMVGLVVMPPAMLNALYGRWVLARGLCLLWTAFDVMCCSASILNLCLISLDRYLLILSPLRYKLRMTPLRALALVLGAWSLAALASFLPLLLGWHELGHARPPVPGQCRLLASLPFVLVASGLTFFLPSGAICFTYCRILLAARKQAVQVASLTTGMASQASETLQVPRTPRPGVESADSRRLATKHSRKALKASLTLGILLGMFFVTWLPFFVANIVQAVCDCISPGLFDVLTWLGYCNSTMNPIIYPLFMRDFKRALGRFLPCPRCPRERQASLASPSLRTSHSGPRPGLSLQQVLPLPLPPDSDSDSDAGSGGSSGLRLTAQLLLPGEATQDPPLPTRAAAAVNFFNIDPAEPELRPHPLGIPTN
T4 sequence (P34969 whole entry): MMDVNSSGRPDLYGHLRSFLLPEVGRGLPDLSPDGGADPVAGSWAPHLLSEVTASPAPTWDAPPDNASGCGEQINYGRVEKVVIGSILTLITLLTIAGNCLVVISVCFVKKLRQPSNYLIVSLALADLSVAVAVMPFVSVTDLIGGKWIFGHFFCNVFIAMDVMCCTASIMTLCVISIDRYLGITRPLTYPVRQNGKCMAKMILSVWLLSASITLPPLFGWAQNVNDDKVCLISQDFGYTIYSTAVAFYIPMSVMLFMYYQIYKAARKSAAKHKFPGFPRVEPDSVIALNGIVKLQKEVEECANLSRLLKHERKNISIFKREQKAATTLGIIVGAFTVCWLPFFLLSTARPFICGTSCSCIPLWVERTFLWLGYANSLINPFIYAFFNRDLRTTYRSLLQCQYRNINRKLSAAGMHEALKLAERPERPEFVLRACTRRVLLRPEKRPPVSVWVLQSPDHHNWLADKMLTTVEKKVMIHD
T5 sequence (P31645 whole entry): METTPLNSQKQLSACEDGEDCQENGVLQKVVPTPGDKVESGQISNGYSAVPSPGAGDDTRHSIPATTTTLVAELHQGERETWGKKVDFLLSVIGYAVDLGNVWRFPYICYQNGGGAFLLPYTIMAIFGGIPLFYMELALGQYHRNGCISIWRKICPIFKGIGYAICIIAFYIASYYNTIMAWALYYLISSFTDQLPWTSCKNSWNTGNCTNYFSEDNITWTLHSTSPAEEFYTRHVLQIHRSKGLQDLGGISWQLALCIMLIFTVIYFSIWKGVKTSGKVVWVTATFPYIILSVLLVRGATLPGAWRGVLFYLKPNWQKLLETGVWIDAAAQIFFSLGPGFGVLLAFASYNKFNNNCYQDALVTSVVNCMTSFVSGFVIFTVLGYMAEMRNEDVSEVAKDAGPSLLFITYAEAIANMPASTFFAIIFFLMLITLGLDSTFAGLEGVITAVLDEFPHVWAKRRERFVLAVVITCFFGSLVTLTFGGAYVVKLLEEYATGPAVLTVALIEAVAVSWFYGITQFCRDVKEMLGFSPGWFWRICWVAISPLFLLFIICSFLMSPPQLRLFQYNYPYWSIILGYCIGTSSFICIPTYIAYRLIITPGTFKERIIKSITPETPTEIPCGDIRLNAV
dopaminergic receptors D2, sequence (P14416 whole entry): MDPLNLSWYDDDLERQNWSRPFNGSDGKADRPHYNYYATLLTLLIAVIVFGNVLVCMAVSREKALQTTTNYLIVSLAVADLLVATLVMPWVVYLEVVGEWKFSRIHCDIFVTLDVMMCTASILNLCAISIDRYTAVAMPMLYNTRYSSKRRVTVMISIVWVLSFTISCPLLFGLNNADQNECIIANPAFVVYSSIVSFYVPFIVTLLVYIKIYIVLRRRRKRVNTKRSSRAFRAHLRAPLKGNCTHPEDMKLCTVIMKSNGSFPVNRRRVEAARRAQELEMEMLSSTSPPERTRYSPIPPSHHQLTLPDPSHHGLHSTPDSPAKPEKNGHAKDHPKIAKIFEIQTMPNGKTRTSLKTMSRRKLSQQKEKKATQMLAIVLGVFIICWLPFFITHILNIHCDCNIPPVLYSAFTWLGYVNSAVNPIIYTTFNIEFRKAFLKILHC
dopaminergic receptors D3, sequence (P35462 whole entry): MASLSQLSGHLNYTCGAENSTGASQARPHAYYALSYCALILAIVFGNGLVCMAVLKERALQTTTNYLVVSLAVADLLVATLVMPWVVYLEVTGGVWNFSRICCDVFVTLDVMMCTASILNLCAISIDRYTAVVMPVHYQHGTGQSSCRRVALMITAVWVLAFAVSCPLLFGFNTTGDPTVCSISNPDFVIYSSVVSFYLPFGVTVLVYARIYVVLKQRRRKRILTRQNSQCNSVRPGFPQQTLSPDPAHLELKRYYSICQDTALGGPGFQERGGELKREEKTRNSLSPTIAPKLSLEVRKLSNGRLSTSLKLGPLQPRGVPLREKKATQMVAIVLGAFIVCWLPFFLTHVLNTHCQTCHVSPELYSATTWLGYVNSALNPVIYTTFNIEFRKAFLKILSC
T2 sequence (P28223 whole entry): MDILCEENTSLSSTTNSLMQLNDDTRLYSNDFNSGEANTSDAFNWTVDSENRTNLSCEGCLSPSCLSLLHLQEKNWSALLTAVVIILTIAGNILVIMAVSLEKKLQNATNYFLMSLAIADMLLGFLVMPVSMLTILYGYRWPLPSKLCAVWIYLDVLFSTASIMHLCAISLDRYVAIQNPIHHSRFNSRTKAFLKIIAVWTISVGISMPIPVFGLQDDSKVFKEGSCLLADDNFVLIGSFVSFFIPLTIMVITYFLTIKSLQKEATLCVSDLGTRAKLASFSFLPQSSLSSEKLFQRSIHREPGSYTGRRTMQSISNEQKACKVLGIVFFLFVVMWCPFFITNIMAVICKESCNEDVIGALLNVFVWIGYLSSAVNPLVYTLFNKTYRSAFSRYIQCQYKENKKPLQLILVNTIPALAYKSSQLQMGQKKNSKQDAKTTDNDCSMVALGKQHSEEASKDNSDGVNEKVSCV

SMILES: CCCc1ccc(S(=O)(=O)NCC2CN(CCCc3noc4cc(F)ccc34)C2)cc1 [Compound 157, N-[[1-[3-(6-Fluoro-1,2-benzoxazol-3-yl)propyl]azetidin-3-yl]methyl]-4-propyl-benzenesulphonamide]
- inhibition at 1 µM [1]: 81%
- inhibition at 1 µM [2]: 72%
- inhibition at 1 µM [3]: 61%
- inhibition at 1 µM (5-HT2A receptor): 95%
- inhibition at 1 µM (5-HT6 receptor): 80%
- inhibition at 1 µM (5-HT7 receptor): 93%
- inhibition at 1 µM [4]: 25%

SMILES: O=S(=O)(NCC1CN(CCCc2noc3cc(F)ccc23)C1)c1cccc(O)c1 [Compound 149, N-[[1-[3-(6-Fluoro-1,2-benzoxazol-3-yl)propyl]azetidin-3-yl]methyl]-3-hydroxy-benzenesulphonamide]
- inhibition at 1 µM [1]: 91%
- inhibition at 1 µM [2]: 39%
- inhibition at 1 µM [3]: 82%
- inhibition at 1 µM (5-HT2A receptor): 96%
- inhibition at 1 µM (5-HT6 receptor): 71%
- inhibition at 1 µM (5-HT7 receptor): 113%
- inhibition at 1 µM [4]: 22%

SMILES: O=S(=O)(NCC1CCN(CCCc2noc3cc(F)ccc23)C1)c1cc2ccccc2o1 (stereo not drawn) [Compound 257, N-[[1-[3-(6-Fluoro-1,2-benzoxazol-3-yl)propyl]pyrrolidin-3-yl]methyl]-benzofuran-2-sulphonamide]
- inhibition at 1 µM [1]: 92%
- inhibition at 1 µM [2]: 62%
- inhibition at 1 µM [3]: 87%
- inhibition at 1 µM (5-HT2A receptor): 100%
- inhibition at 1 µM (5-HT6 receptor): 94%
- inhibition at 1 µM (5-HT7 receptor): 88%
- inhibition at 1 µM [4]: 20%

SMILES: COc1cccc(S(=O)(=O)NCC2CCN(CCCc3noc4cc(F)ccc34)C2)c1 (stereo not drawn) [Compound 250, N-[[1-[3-(6-Fluoro-1,2-benzoxazol-3-yl)propyl]pyrrolidin-3-yl]methyl]-3-methoxy-benzenesulphonamide]
- inhibition at 1 µM [1]: 18%
- inhibition at 1 µM [2]: 55%
- inhibition at 1 µM [3]: 30%
- inhibition at 1 µM (5-HT2A receptor): 87%
- inhibition at 1 µM (5-HT6 receptor): 74%
- inhibition at 1 µM (5-HT7 receptor): 91%
- inhibition at 1 µM [4]: 23%

SMILES: COc1cccc(S(=O)(=O)NC2CCN(CCCc3noc4cc(F)ccc34)C2)c1 (stereo not drawn) [Compound 17, N-[1-[3-(6-Fluoro-1,2-benzoxazol-3-yl)propyl]pyrrolidin-3-yl]-3-methoxybenzenesulphonamide]
- inhibition at 1 µM [1]: 80%
- inhibition at 1 µM [2]: 20%
- inhibition at 1 µM [3]: 23%
- inhibition at 1 µM (5-HT2A receptor): 94%
- inhibition at 1 µM (5-HT6 receptor): 76%
- inhibition at 1 µM (5-HT7 receptor): 80%
- inhibition at 1 µM [4]: 52%

SMILES: O=S(=O)(NC1CCN(CCCc2noc3cc(F)ccc23)CC1)c1ccccc1 [Compound 32, N-[1-[3-(6-Fluoro-1,2-benzoxazol-3-yl)propyl]-4-piperidine]benzene-sulphonamide]
- D2 [%] [1]: 63%
- D3 [%] [2]: 57%
- 5-HT1A [%] [3]: 37%
- 5-HT2A [%] (5-HT2A receptor): 83%
- 5-HT6 [%] (5-HT6 receptor): 63%
- 5-HT7 [%] (5-HT7 receptor): 92%
- SERT [%] [4]: 5%

SMILES: O=S(=O)(NC1CCN(CCCc2noc3cc(F)ccc23)CC1)c1csc2ccccc12 [Compound 330, N-[1-[3-(6-Fluoro-1,2-benzoxazol-3-yl)propyl]-4-piperidyl]benzothiophene-3-sulphonamide]
- inhibition at 1 µM [1]: 77%
- inhibition at 1 µM [2]: 64%
- inhibition at 1 µM [3]: 82%
- inhibition at 1 µM (5-HT2A receptor): 102%
- inhibition at 1 µM (5-HT6 receptor): 79%
- inhibition at 1 µM (5-HT7 receptor): 101%
- inhibition at 1 µM [4]: 22%

SMILES: O=S(=O)(NCC1CN(CCCc2noc3cc(F)ccc23)C1)c1cccc(Cl)c1 [Compound 137, 3-Chloro-N-[[1-[3-(6-fluoro-1,2-benzoxazol-3-yl)propyl]azetidin-3-yl]methyl]benzenesulphonamide]
- inhibition at 1 µM [1]: 76%
- inhibition at 1 µM [2]: 50%
- inhibition at 1 µM [3]: 14%
- inhibition at 1 µM (5-HT2A receptor): 62%
- inhibition at 1 µM (5-HT6 receptor): 14%
- inhibition at 1 µM (5-HT7 receptor): 82%
- inhibition at 1 µM [4]: -5%

SMILES: Cc1cccc(S(=O)(=O)NCC2CN(CCCc3noc4cc(F)ccc34)C2)c1 [Compound 142, N-[[1-[3-(6-Fluoro-1,2-benzoxazol-3-yl)propyl]azetidin-3-yl]methyl]-3-methyl-benzenesulphonamide]
- inhibition at 1 µM [1]: 58%
- inhibition at 1 µM [2]: 45%
- inhibition at 1 µM [3]: 29%
- inhibition at 1 µM (5-HT2A receptor): 77%
- inhibition at 1 µM (5-HT6 receptor): 37%
- inhibition at 1 µM (5-HT7 receptor): 87%
- inhibition at 1 µM [4]: -4%
